Test results taken from patent publication US20220168315A1, “COMPOUNDS AND THERAPEUTIC USES THEREOF” (priority 2019, published 2022).

Biological target: T1, PIKfyve (Homo sapiens, UniProt Q9Y2I7)
T1 construct: T7 phage fusion (kinase-tagged phage) or DNA tag for qPCR; made in house; host or cells: E. coli BL21-derived host (T7 phage) for most kinases, HEK-293 for the rest
Assay: Kinase binding assay (kinase-tagged T7 phage, affinity beads, qPCR readout), Kd determination
Details: 11-point 3-fold dilution series
Description: Kinase assays. For most assays, kinase-tagged T7 phage strains were prepared in an E. coli host derived from the BL21 strain. E. coli were grown to log-phase and infected with T7 phage and incubated with shaking at 32° C. until lysis. The lysates were centrifuged and filtered to remove cell debris. The remaining kinases were produced in HEK-293 cells and subsequently tagged with DNA for qPCR detection. Streptavidin-coated magnetic beads were treated with biotinylated small molecule ligands for 30 minutes at room temperature to generate affinity resins for kinase assays. The liganded beads were blocked with excess biotin and washed with blocking buffer (SeaBlock (Pierce), 1% BSA, 0.05% Tween 20, 1 mM DTT) to remove unbound ligand and to reduce non-specific binding. Binding reactions were assembled by combining kinases, liganded affinity beads, and test compounds in 1× binding buffer (20% SeaBlock, 0.17×PBS, 0.05% Tween 20, 6 mM DTT). Test compounds were prepared as 111× stocks in 100% DMSO. Kds were determined using an 11-point 3-fold compound dilution series with three DMSO control points. All compounds for Kd measurements are distributed by acoustic transfer (non-contact dispensing) in 100% DMSO. The compounds were then diluted directly into the assays such that the final concentration of DMSO was 0.9%. All reactions performed in polypropylene 384-well plate. Each was a final volume of 0.02 ml. The assay plates were incubated at room temperature with shaking for 1 hour and the affinity beads were washed with wash buffer (1×PBS, 0.05% Tween 20). The beads were then re-suspended in elution buffer (1×PBS, 0.05% Tween 20, 0.5 μM non-biotinylated affinity ligand) and incubated at room temperature with shaking for 30 minutes. The kinase concentration in the eluates was measured by qPCR.
An 11-point 3-fold serial dilution of each test compound was prepared in 100% DMSO at 100× final test concentration and subsequently diluted to 1× in the assay (final DMSO concentration=1%). Most Kds were determined using a compound top concentration=30,000 nM. If the initial Kd determined was <0.5 nM (the lowest concentration tested), the measurement was repeated with a serial dilution starting at a lower top concentration.

T1 sequence (Q9Y2I7 whole entry, the tested form may be a part): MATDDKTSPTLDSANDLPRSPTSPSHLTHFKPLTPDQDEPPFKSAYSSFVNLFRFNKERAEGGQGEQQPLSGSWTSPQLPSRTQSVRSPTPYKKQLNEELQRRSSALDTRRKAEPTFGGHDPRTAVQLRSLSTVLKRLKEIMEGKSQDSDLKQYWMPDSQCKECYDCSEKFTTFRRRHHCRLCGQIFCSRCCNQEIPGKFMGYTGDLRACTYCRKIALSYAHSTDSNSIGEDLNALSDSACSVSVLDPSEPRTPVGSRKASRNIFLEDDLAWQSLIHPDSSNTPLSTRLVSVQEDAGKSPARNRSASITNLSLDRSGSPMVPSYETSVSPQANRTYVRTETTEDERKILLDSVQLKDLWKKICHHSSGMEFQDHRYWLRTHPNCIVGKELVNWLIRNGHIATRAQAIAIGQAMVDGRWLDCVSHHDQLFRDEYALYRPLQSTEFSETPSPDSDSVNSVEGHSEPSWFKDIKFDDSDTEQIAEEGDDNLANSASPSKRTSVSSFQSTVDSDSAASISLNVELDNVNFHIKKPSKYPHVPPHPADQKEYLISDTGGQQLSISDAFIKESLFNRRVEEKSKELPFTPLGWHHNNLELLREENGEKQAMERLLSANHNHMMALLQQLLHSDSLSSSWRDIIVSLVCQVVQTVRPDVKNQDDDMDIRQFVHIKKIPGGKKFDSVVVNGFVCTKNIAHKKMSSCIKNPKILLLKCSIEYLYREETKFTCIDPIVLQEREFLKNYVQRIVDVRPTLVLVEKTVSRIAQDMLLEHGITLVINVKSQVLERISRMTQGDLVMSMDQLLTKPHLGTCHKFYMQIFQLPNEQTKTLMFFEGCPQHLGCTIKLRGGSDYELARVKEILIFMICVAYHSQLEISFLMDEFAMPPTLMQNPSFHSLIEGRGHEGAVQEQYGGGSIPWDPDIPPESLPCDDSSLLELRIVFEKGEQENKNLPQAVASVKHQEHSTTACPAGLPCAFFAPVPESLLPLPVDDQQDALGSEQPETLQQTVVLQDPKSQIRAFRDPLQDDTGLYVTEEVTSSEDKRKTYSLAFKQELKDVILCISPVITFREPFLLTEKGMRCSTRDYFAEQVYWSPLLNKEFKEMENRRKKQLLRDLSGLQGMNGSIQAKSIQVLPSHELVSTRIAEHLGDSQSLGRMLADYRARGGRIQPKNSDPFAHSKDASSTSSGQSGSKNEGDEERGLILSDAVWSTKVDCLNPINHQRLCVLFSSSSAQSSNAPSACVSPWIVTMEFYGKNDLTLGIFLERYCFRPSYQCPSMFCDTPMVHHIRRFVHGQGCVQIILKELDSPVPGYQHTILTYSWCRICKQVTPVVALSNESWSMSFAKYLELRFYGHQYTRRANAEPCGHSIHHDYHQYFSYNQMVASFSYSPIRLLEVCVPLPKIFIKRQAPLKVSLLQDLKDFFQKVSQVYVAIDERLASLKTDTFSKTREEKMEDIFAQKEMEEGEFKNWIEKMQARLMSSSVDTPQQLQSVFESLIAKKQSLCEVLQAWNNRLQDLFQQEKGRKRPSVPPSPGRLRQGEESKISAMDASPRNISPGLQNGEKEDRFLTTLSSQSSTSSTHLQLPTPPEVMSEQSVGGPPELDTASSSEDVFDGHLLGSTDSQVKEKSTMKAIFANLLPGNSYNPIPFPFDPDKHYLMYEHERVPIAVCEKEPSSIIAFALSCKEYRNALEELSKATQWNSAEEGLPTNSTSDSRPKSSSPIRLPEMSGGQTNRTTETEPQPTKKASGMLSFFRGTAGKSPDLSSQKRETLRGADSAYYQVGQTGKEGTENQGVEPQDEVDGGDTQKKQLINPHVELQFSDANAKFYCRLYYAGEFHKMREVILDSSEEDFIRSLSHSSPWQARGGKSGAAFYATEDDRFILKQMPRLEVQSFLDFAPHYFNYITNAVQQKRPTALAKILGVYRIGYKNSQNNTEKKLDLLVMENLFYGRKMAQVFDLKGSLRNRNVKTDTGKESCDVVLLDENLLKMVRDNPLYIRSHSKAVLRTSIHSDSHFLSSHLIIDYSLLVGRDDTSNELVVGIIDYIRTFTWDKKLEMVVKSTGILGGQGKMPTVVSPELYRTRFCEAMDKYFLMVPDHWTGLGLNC

| Kd [nM] | SMILES |
| --- | --- |
| ≤ 1 | Cc1cccc(/C=N/Nc2cc(N3CCOCC3)n3nc(C(=O)NC4COC4)cc3n2)c1 [Example 41, 7-morpholino-5-[(2E)-2-(m-tolylmethylene)hydrazino]-N-(oxetan-3-yl)pyrazolo[1,5-a]pyrimidine-2-carboxamide] |
| 1 to 5 | Cc1cccc(/C=N/Nc2cc(N3CCOCC3)n3nc(C(=O)NC4CC(F)(F)C4)cc3n2)c1 [Example 42, N-(3,3-difluorocyclobutyl)-7-morpholino-5-[(2E)-2-(m-tolylmethylene)hydrazino]pyrazolo[1,5-a]pyrimidine-2-carboxamide] |
